The source of these data is ChEMBL document CHEMBL4308920, “Optimizing the Pharmacological Profile of New Bifunctional Antihyperlipidemic/Antioxidant Morpholine Derivatives” (ACS Med Chem Lett, 2019).

Some results are limits rather than exact numbers.

The subject of one assay is Liver. The experiment in a line: Antioxidant activity in rat hepatic microsomes assessed as reduction in ferrous salt/ascorbic acid-induced lipid peroxidation of membrane lipids by measuring TBARS level after 45 mins by spectrophotometric method. Format: functional, Microsome. As to conditions: 0.75 h.
Assay [1] has as its target T1, Squalene synthase (Rattus norvegicus, UniProt Q02769).
T1 sequence (Q02769 whole entry): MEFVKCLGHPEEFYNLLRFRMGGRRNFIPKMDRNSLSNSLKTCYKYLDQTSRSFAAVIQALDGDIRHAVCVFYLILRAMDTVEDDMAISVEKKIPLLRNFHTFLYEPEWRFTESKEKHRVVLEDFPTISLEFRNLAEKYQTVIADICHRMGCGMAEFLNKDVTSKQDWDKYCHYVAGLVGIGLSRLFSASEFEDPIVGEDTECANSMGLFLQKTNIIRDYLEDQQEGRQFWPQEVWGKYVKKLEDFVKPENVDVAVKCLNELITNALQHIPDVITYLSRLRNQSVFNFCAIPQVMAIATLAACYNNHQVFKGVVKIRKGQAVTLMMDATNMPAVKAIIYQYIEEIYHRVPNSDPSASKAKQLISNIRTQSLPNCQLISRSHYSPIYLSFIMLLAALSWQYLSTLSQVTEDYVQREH
The experiment in a line: Inhibition of SQS in rat liver microsomes assessed as reduction in [3H]FPP conversion to squalene preincubated for 10 mins followed by [3H]FPP addition and measured after 10 mins by scintillation counting method.

The target of assay [2] is T2, Squalene synthase (Rattus norvegicus) (UniProt Q02769).
T2 sequence (whole entry): T1 sequence (Q02769 whole entry)
The assay is described as follows: Potency index, ratio of 2-(biphenyl-4-yl)-4-methylmorpholin-2-ol hydrobromide IC50 to compound IC50 for inhibition of SQS in rat liver microsomes. Background: Liver microsomes are vesicles of endoplasmic reticulum, rich in cytochrome P450 enzymes.

Assay [3] deals with Mus musculus. The experiment in a line: In vivo antioxidant activity in C57BL/6 mouse model of Triton WR1339-induced hyperlipidemia assessed as increase in total antioxidant capacity in plasma at 84 umol/kg, ip measured after 24 hrs relative to control. The class given is functional.
Assay [4] deals with Mus musculus. The assay is described as follows: Antihyperlipidemic activity in C57BL/6 mouse model of Triton WR1339-induced hyperlipidemia assessed as reduction in plasma total triglyceride level at 84 umol/kg, ip measured after 24 hrs relative to control. The class given is functional. Details: scale not given: the % may be the effect or the level left.
For assay [5], the target named is T2, Squalene synthase (Rattus norvegicus). The experiment in a line: Potency index, ratio of 2-(4-(6-methoxynaphthalen-2-yl)phenyl)-4-methylmorpholin-2-ol hydrobromide IC50 to compound IC50 for inhibition of SQS in rat liver microsomes.
Assay [6] concerns Mus musculus. The assay is described as follows: Anti-inflammatory activity in C57BL/6 mouse assessed as inhibition of carrageenan-induced hind paw edema at 300 umol/kg, ip treated immediately after carrageenan challenge measured after 3.5 hrs relative to control. The class given is functional. The conditions noted are these: C57BL/6, ip.
Assay [7] concerns the target T2, Squalene synthase (Rattus norvegicus). The assay is described as follows: Potency index, ratio of 4-methyl-2-(4-(naphthalen-2-yl)phenyl)morpholin-2-ol hydrobromide IC50 to compound IC50 for inhibition of SQS in rat liver microsomes.
The subject of assay [8] is Mus musculus. The experiment in a line: Antihypercholesterolemic activity in C57BL/6 mouse model of Triton WR1339-induced hyperlipidemia assessed as reduction in plasma total cholesterol level at 84 umol/kg, ip measured after 24 hrs relative to control. Format: functional. Also noted: scale not given: the % may be the effect or the level left.
In assay [9] the target is T1, Squalene synthase. The assay is described as follows: Inhibition of SQS in rat liver microsomes assessed as reduction in [3H]FPP conversion to squalene after 45 mins by liquid scintillation counting method.

For the compound `CN1CCOC(OCCCO)(c2ccc(-c3ccc4ccccc4c3)cc2)C1` (centres undefined), the values for the IC50 in the assay with Liver and at Squalene synthase [1] were 259 µM and 6.2 µM, respectively.

Take `COc1ccc2cc(-c3ccc(C4(OCCCO)CN(C)CCO4)cc3)ccc2c1` (centres undefined): the IC50 (commonly the point on the concentration scale where inhibition reaches its midpoint) in the assay with Liver worked out at 211 µM; at Squalene synthase [1] it was 29.4 µM.

Turning to `Br.CN1CCOC(OCCCS)(c2ccc(-c3ccc4ccccc4c3)cc2)C1` (centres undefined), the Ratio IC50 in [2], in [5] and in assay [7] was less than 136 throughout. Also, the IC50 in the assay on Liver came to 198 µM; on Squalene synthase [1], 0.014 µM. Moreover, the TAC with Mus musculus [3] is 20%. The Activity in the assay with Mus musculus [4] amounted to 25%; with Mus musculus [8], 67%. Further, the inhibition in vivo (in general, the change of the read-out against control, counted positive when it falls) at 300 µmol/kg in the assay with Mus musculus [6] stood at 40%.

Regarding `CN1CCOC(c2ccc(-c3ccccc3)cc2)C1` (centres undefined), the IC50 is 86.8 µM in the assay with Liver and more than 100 µM on Squalene synthase [1].

`CN1CCOC(OCCCS)(c2ccc(-c3ccccc3)cc2)C1` (centres undefined): the Ratio IC50 in assay [2], in assay [5] and in [7] was less than 136 throughout. Besides, the IC50 in the assay on Liver is 372 µM; at Squalene synthase [1], 2.7 µM.

As to `COc1ccc2cc(-c3ccc(C4(OCCCO[N+](=O)[O-])CN(C)CCO4)cc3)ccc2c1` (centres undefined), the figures for the IC50 with Liver and at Squalene synthase [1] were 45 µM and 16.1 µM, respectively.

Turning to `Cc1c(C)c2c(c(C)c1O)CCC(C)(C(=O)O)O2` (centres undefined) [TROLOX], the IC50 in the assay on Liver worked out at 25 µM.

Turning to `COc1ccc2cc(-c3ccc(C4(OCCCS)CN(C)CCO4)cc3)ccc2c1` (centres undefined), the Ratio IC50 in assay [2], in assay [5] and in assay [7] was less than 136 throughout. The half-maximal inhibitory concentration (IC50) in the assay with Liver worked out at 147 µM; on Squalene synthase [1], 0.16 µM.

Turning to `CN1CCOC(OCCCO[N+](=O)[O-])(c2ccc(-c3ccc4ccccc4c3)cc2)C1` (centres undefined), the IC50 in the assay on Liver came out at 75.8 µM; at Squalene synthase [1], 0.51 µM.

With `CN1C=C(c2ccc(-c3ccccc3)cc2)OC2CCCCC21` (centres undefined), the concentration for half-maximal inhibition (IC50) came out at 65.1 µM with Liver and 42 µM at Squalene synthase [1].

Turning to `CN1CCSC(c2ccc(-c3ccccc3)cc2)C1` (centres undefined), the IC50 in the assay with Liver is 299 µM; at Squalene synthase [1], 15 µM.

`CN1CCOC(OCCCO)(c2ccc(-c3ccccc3)cc2)C1` (centres undefined): the IC50 stood at 333 µM in the assay on Liver and 24.9 µM on Squalene synthase [1].

Turning to `CN1CCSC(c2ccc3ccccc3c2)C1` (centres undefined), the IC50 was determined as 178 µM in the assay on Liver and 25.2 µM on Squalene synthase [1].

With `CC(C)(Sc1cc(C(C)(C)C)c(O)c(C(C)(C)C)c1)Sc1cc(C(C)(C)C)c(O)c(C(C)(C)C)c1` [PROBUCOL], in the assay on Liver, the IC50 was more than 500 µM.

For the compound `COc1cccc([C@H]2O[C@H](CC(=O)N3CCC(CC(=O)O)CC3)C(=O)N(CC(C)(C)COC(C)=O)c3ccc(Cl)cc32)c1OC` [LAPAQUISTAT ACETATE], the IC50 on Squalene synthase [9] was determined as 0.078 µM.

For the compound `c1ccc(-c2ccc(C3CN4CCCCC4CO3)cc2)cc1` (centres undefined), the IC50 in the assay on Liver came to 179 µM; on Squalene synthase [1] it was 7.5 µM.

Regarding `CN1CC(c2ccc(-c3ccccc3)cc2)OC2CCCCC21` (centres undefined), the half-inhibitory concentration (IC50) in the assay on Liver turned out to be 218 µM; on Squalene synthase [1], 20.8 µM.
